Assay results published in patent publication US9242984B2, “Pyrazolyl derivatives as Syk inhibitors” (Merck Sharp & Dohme Corp., priority 2012, dated 2016).
Like-named read-outs stand apart in the source and are kept apart here.

Biological target: T1, recombinant human Syk (GST-hSyk fusion protein) (Homo sapiens, UniProt P43405)
T1 construct: purchased Carna Biosciences 08-176
Assay: Homogeneous Time-Resolved Fluorescence (HTRF) assay for the recombinant human Syk enzyme
Assay type: biochemical
Conditions: 10-dose titration, 25 μM ATP
How it was run: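 IC50 came from a four-parameter fit over ten doses, 10 μM to 0.508 nM, with HTRF read-out (Eu-anti-pTyr antibody, SA-APC, EDTA stop, 30 min). The enzyme, 5 pM GST-hSyk, met compound for 10 min, then phosphorylated 250 nM biotin-peptide with 25 μM ATP and 5 mM Mg for 45 min at room temperature, pH 7.5.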

[1] = IC50 class, read-out: rhSYK Activity

IC50 [1] [nM] | IC50 (read-out: rhSYK IC50) [nM] | SMILES
≤ 100 |  | Cc1cc(Nc2nccc(C(F)F)n2)cc(-c2cnn(CC(O)C(N)=O)c2)c1 (stereo not drawn) [Example 5.18, 3-[4-(3-{[4-(difluoromethyl)pyrimidin-2-yl]amino}-5-methylphenyl)-1H-pyrazol-1-yl]-2-hydroxypropanamide]
≤ 100 |  | Cc1cc(Nc2nccc(C(F)F)n2)cc(-c2cnn(CC(O)CF)c2)c1 (stereo not drawn) [Example 5.19, 1-[4-(3-{[4-(difluoromethyl)pyrimidin-2-yl]amino}-5-methylphenyl)-1H-pyrazol-1-yl]-3-fluoropropan-2-ol]
≤ 100 |  | CCOC(=O)C(O)Cn1cc(-c2cc(C)cc(Nc3nccc(C(F)F)n3)c2)cn1 (stereo not drawn) [Example 5.20, ethyl 3-[4-(3-{[4-(difluoromethyl)pyrimidin-2-yl]amino}-5-methylphenyl)-1H-pyrazol-1-yl]-2-hydroxypropanoate]
≤ 100 |  | Cc1cc(Nc2nccc(C(F)F)n2)cc(-c2cnn(CC(O)CNC(=O)OC(C)(C)C)c2)c1 (stereo not drawn) [Example 5.21, tert-butyl {3-[4-(3-{[4-(difluoromethyl)pyrimidin-2-yl]amino}-5-methylphenyl)-1H-pyrazol-1-yl]-2-hydroxypropyl}carbamate]
≤ 100 |  | COCC(O)Cn1cc(-c2cc(C)cc(Nc3nccc(C(F)F)n3)c2)cn1 (stereo not drawn) [Example 5.22, 1-[4-(3-{[4-(difluoromethyl)pyrimidin-2-yl]amino}-5-methylphenyl)-1H-pyrazol-1-yl]-3-methoxypropan-2-ol]
≤ 100 |  | Cc1cc(Nc2nccc(C(F)F)n2)cc(-c2cnn(CC(O)C(C)C)c2)c1 (stereo not drawn) [Example 5.23, 1-[4-(3-{[4-(difluoromethyl)pyrimidin-2-yl]amino}-5-methylphenyl)-1H-pyrazol-1-yl]-3-methylbutan-2-ol]
≤ 100 |  | Cc1cc(Nc2nccc(C(F)F)n2)cc(-c2cnn(CC(O)C(F)(F)F)c2)c1 (stereo not drawn) [Example 5.24, 3-[4-(3-{[4-(difluoromethyl)pyrimidin-2-yl]amino}-5-methylphenyl)-1H-pyrazol-1-yl]-1,1,1-trifluoropropan-2-ol]
≤ 100 |  | Cc1cc(Nc2nccc(C(F)F)n2)cc(-c2cnn(CC(O)Cn3cccn3)c2)c1 (stereo not drawn) [Example 5.25, 1-[4-(3-{[4-(difluoromethyl)pyrimidin-2-yl]amino}-5-methylphenyl)-1H-pyrazol-1-yl]-3-(1H-pyrazol-1-yl)propan-2-ol]
≤ 100 |  | Cc1cc(Nc2nccc(C(F)F)n2)cc(-c2cnn(CC(O)c3ccccn3)c2)c1 (stereo not drawn) [Example 5.26, 2-[4-(3-{[4-(difluoromethyl)pyrimidin-2-yl]amino}-5-methylphenyl)-1H-pyrazol-1-yl]-1-pyridin-2-ylethanol]
≤ 100 |  | Cc1cc(Nc2nccc(C(F)F)n2)cc(-c2cnn(CC(O)CC3(O)CCCCC3)c2)c1 (stereo not drawn) [Example 5.27, 1-{3-[4-(3-{[4-(difluoromethyl)pyrimidin-2-yl]amino}-5-methylphenyl)-1H-pyrazol-1-yl]-2-hydroxypropyl}cyclohexanol]
≤ 100 |  | Cc1cc(Nc2nccc(C(F)F)n2)cc(-c2cnn(CC(O)CC3COC(=O)C3)c2)c1 (stereo not drawn) [Example 5.28, 4-{3-[4-(3-{[4-(difluoromethyl)pyrimidin-2-yl]amino}-5-methylphenyl)-1H-pyrazol-1-yl]-2-hydroxypropyl}dihydrofuran-2(3H)-one]
≤ 100 |  | Cc1cc(Nc2nccc(C(F)F)n2)cc(-c2cnn(CC(O)CC(C)O)c2)c1 (stereo not drawn) [Example 5.29, 1,3,5-trideoxy-1-[4-(3-{[4-(difluoromethyl)pyrimidin-2-yl]amino}-5-methylphenyl)-1H-pyrazol-1-yl]pentitol]
≤ 100 |  | Cc1cc(Nc2nccc(C(F)F)n2)cc(-c2cnn(CC(O)C(C)(C)C)c2)c1 (stereo not drawn) [Example 5.30, 1-[4-(3-{[4-(difluoromethyl)pyrimidin-2-yl]amino}-5-methylphenyl)-1H-pyrazol-1-yl]-3,3-dimethylbutan-2-ol]
≤ 100 |  | Cc1cc(Nc2nccc(C(F)F)n2)cc(-c2cnn(CC(O)COCC(F)(F)F)c2)c1 (stereo not drawn) [Example 5.31, 1-[4-(3-{[4-(difluoromethyl)pyrimidin-2-yl]amino}-5-methylphenyl)-1H-pyrazol-1-yl]-3-(2,2,2-trifluoroethoxy)propan-2-ol]
≤ 100 |  | CCC(O)(CC)Cn1cc(-c2cc(C)cc(Nc3nccc(C(F)F)n3)c2)cn1 [Example 5.32, 3-{[4-(3-{[4-(difluoromethyl)pyrimidin-2-yl]amino}-5-methylphenyl)-1H-pyrazol-1-yl]methyl}pentan-3-ol]
≤ 100 |  | Cc1cc(Nc2nccc(C(F)F)n2)cc(-c2cnn(CC(O)CN3CCCC3=O)c2)c1 (stereo not drawn) [Example 5.33, 1-{3-[4-(3-{[4-(difluoromethyl)pyrimidin-2-yl]amino}-5-methylphenyl)-1H-pyrazol-1-yl]-2-hydroxypropyl}pyrrolidin-2-one]
≤ 100 |  | Cc1cc(Nc2nccc(C(F)F)n2)cc(-c2cnn(CC(O)C3CCCNC3)c2)c1 (stereo not drawn) [Example 5.34, 2-[4-(3-{[4-(difluoromethyl)pyrimidin-2-yl]amino}-5-methylphenyl)-1H-pyrazol-1-yl]-1-piperidin-3-ylethanol]

Second part, the molecule before the results:

SMILES | IC50 [1] [nM] | IC50 (read-out: rhSYK IC50) [nM]
Cc1cc(Nc2nccc(C(C)(F)F)n2)cc(-c2cnn(CC3CNC(=O)O3)c2)c1 (stereo not drawn) [Example 3.125, 5-{[4-(3-{[4-(1,1-difluoroethyl)pyrimidin-2-yl]amino}-5-methylphenyl)-1H-pyrazol-1-yl]methyl}-1,3-oxazolidin-2-one] | ≤ 100 | 
Cc1cc(Nc2nccc(C(C)(F)F)n2)cc(-c2cnn(CC3CNC(=O)O3)c2)c1 (stereo not drawn) [Example 3.126, 5-{[4-(3-{[4-(1,1-difluoroethyl)pyrimidin-2-yl]amino}-5-methylphenyl)-1H-pyrazol-1-yl]methyl}-1,3-oxazolidin-2-one] | ≤ 100 | 
Cc1cc(Nc2nccc(C(F)(F)F)n2)cc(-c2cnn(CC3NC(=O)OC3C)c2)c1 (stereo not drawn) [Example 3.127, 5-methyl-4-{[4-(3-methyl-5-{[4-(trifluoromethyl)pyrimidin-2-yl]amino}phenyl)-1H-pyrazol-1-yl]methyl}-1,3-oxazolidin-2-one] | ≤ 100 | 
Cc1cc(Nc2nccc(C(F)(F)F)n2)cc(-c2cnn(CC3NC(=O)OC3C)c2)c1 (stereo not drawn) [Example 3.128, 5-methyl-4-{[4-(3-methyl-5-{[4-(trifluoromethyl)pyrimidin-2-yl]amino}phenyl)-1H-pyrazol-1-yl]methyl}-1,3-oxazolidin-2-one] | ≤ 100 | 
Cc1cc(Nc2nccc(C(F)(F)F)n2)cc(-c2cnn(CC3NC(=O)OC3C)c2)c1 (stereo not drawn) [Example 3.129, 5-methyl-4-{[4-(3-methyl-5-{[4-(trifluoromethyl)pyrimidin-2-yl]amino}phenyl)-1H-pyrazol-1-yl]methyl}-1,3-oxazolidin-2-one] | ≤ 100 | 
COC(=O)[C@@H](N)Cn1cc(-c2cc(C)cc(Nc3nccc(C(F)(F)F)n3)c2)cn1 [Example 4.1, methyl 3-[4-(3-methyl-5-{[4-(trifluoromethyl)pyrimidin-2-yl]amino}phenyl)-1H-pyrazol-1-yl]-L-alaninate] | ≤ 100 | 27.4
COC(=O)[C@@H](O)Cn1cc(-c2cc(C)cc(Nc3nccc(C(F)(F)F)n3)c2)cn1 [Example 5.2, methyl (2S)-2-hydroxy-3-[4-(3-methyl-5-{[4-(trifluoromethyl)-pyrimidin-2-yl]amino}phenyl)-1H-pyrazol-1-yl]propanoate] | ≤ 100 | 
COC(=O)[C@H](O)Cn1cc(-c2cc(C)cc(Nc3nccc(C(F)(F)F)n3)c2)cn1 [Example 5.3, methyl (2R)-2-hydroxy-3-[4-(3-methyl-5-{[4-(trifluoro-methyl)pyrimidin-2-yl]amino}phenyl)-1H-pyrazol-1-yl]propanoate] | ≤ 100 | 
Cc1cc(Nc2nccc(C(F)(F)F)n2)cc(-c2cnn(C[C@]3(O)CC[C@@H](C(=O)O)CC3)c2)c1 [Example 5.5, cis-4-hydroxy-4-{[4-(3-methyl-5-{[4-(trifluoro-methyl)pyrimidin-2-yl]amino}-phenyl)-1H-pyrazol-1-yl]methyl}-cyclo-hexanecarboxylic acid] | ≤ 100 | 
Cc1cc(Nc2nccc(C(F)(F)F)n2)cc(-c2cnn(CC(O)COC(C)C)c2)c1 (stereo not drawn) [Example 5.7, 1-(1-methylethoxy)-3-[4-(3-methyl-5-{[4-(trifluoro-methyl)pyrimidin-2-yl]amino}-phenyl)-1H-pyrazol-1-yl]propan-2-ol] | ≤ 100 | 
Cc1cc(Nc2nccc(C(F)(F)F)n2)cc(-c2cnn(CC(O)COc3ccccc3)c2)c1 (stereo not drawn) [Example 5.8, 1-[4-(3-methyl-5-{[4-(trifluoro-methyl)pyrimidin-2-yl]amino}-phenyl)-1H-pyrazol-1-yl]-3-phenoxypropan-2-ol] | 100 to 1000 | 
COc1ccc(OCC(O)Cn2cc(-c3cc(C)cc(Nc4nccc(C(F)(F)F)n4)c3)cn2)cc1 (stereo not drawn) [Example 5.11, 1-(4-methoxy-phenoxy)-3-[4-(3-methyl-5-{[4-(trifluoromethyl)-pyrimidin-2-yl]amino}phenyl)-1H-pyrazol-1-yl]propan-2-ol] | 100 to 1000 | 
Cc1cc(Nc2nccc(C(F)(F)F)n2)cc(-c2cnn(CC(C)(C)O)c2)c1 [Example 5.12, 2-methyl-1-[4-(3-methyl-5-{[4-(trifluorometh-yl)pyrimidin-2-yl]amino}-phenyl)-1H-pyrazol-1-yl]propan-2-ol] | ≤ 100 | 
Cc1cc(Nc2nccc(C(F)(F)F)n2)cc(-c2cnn(C[C@@H](O)C(=O)O)c2)c1 [Example 5.16, (2R)-2-hydroxy-3-[4-(3-methyl-5-{[4-(trifluoromethyl)-pyrimidin-2-yl]amino}phenyl)-1H-pyrazol-1-yl]propanoic acid] | ≤ 100 | 
Cc1cc(Nc2nccc(C(F)(F)F)n2)cc(-c2cnn(C[C@H](O)C(=O)O)c2)c1 [Example 5.17, (2S)-2-hydroxy-3-[4-(3-methyl-5-{[4-(trifluorometh-yl)pyrimidin-2-yl]amino}-phenyl)-1H-pyrazol-1-yl]propanoic acid] | ≤ 100 | 
